{"source": "ChEMBL document CHEMBL6078706", "about": "“Deciphering the Comprehensive Structure-Activity Relationship of Sunshinamide for Breast Cancer Therapy through Dual Modulation of Apoptotic and Ferroptotic Pathways via TrxR1 and Gpx4 Inhibition” (J Med Chem, 2024)", "key": {"HEK293 [1]": {"tested_on": "HEK293", "experiment": "Antiproliferative activity against human HEK293 cells assessed as cell viability at 10 nM incubated for 48 hrs by MTT assay", "format": "toxicity, cell-based", "conditions": "hek293, 48 h, 0.01 µM"}, "[2]": {"experiment": "Toxicity in female BALB/c mouse implanted with mouse 4T1 cells assessed as spleen abnormality at 10 mg/kg, iv", "format": "organism-based", "conditions": "in vivo"}, "4T1 [3]": {"tested_on": "4T1", "experiment": "Antitumor activity against mouse 4T1 cells implanted in female BALB/c mouse assessed as increase in 4-HNE level in tumor at 10 mg/kg, iv administered upto 5 days by Western blot analysis", "format": "functional, organism-based", "conditions": "time <= 5.0 day"}, "MDA-MB-468 [4]": {"tested_on": "MDA-MB-468", "experiment": "Induction of ROS production in human MDA-MB-468 cells assessed as increase in fluorescent signal at 25 nM incubated for 6 hrs in presence of N-acetyl cysteine by DCFH-DA staining based flow cytometry analysis", "format": "functional, cell-based"}, "MDA-MB-468 [5]": {"tested_on": "MDA-MB-468", "experiment": "Induction of endoplasmic reticulum (ER) stress-mediated apoptosis in human MDA-MB-468 cells assessed as increase in p-PERK level at 25 nM measured after 12 hrs by Western blot analysis", "format": "functional, cell-based"}, "MDA-MB-468 [6]": {"tested_on": "MDA-MB-468", "experiment": "Induction of endoplasmic reticulum (ER) stress-mediated apoptosis in human MDA-MB-468 cells assessed as increase in CHOP expression at 25 nM measured at 2 hrs by Western blot analysis", "format": "functional, cell-based"}, "[7]": {"experiment": "Toxicity in female BALB/c mouse implanted with mouse 4T1 cells assessed as spleen lesion at 10 mg/kg, iv", "format": "organism-based", "conditions": "in vivo"}, "4T1 [8]": {"tested_on": "4T1", "experiment": "Antitumor activity against mouse 4T1 cells implanted in female BALB/c mouse assessed as increase in CHOP level in tumor at 10 mg/kg, iv administered upto 5 days by Western blot analysis", "format": "functional, organism-based", "conditions": "time <= 5.0 day"}, "MDA-MB-468 [9]": {"tested_on": "MDA-MB-468", "experiment": "Antiproliferative activity against human MDA-MB-468 cells assessed as reduction in cell viability at 50 nM incubated for 48 hrs in presence of N-acetyl cysteine by MTT assay", "format": "functional, cell-based"}, "[10]": {"experiment": "Toxicity in female BALB/c mouse implanted with mouse 4T1 cells assessed as liver lesion at 10 mg/kg, iv", "format": "organism-based", "conditions": "in vivo"}, "4T1 [11]": {"tested_on": "4T1", "experiment": "Antitumor activity against mouse 4T1 cells implanted in female BALB/c mouse assessed as tumor growth inhibition at 10 mg/kg, iv administered upto 5 days", "format": "functional, organism-based", "conditions": "time <= 5.0 day"}, "HEK293 [12]": {"tested_on": "HEK293", "experiment": "Antiproliferative activity against human HEK293 cells assessed as cell viability upto 50 nM incubated for 48 hrs by MTT assay", "format": "toxicity, cell-based", "conditions": "hek293, 48 h, 0.05 µM"}, "4T1 [13]": {"tested_on": "4T1", "experiment": "Antitumor activity against mouse 4T1 cells implanted in female BALB/c mouse model assessed as increase in IFN-gamma expression in tumor at 10 mg/kg, iv administered upto 5 days", "format": "functional, organism-based", "conditions": "time <= 5.0 day"}, "4T1 [14]": {"tested_on": "4T1", "experiment": "Antitumor activity against mouse 4T1 cells implanted in female BALB/c mouse assessed as induction of intracellular ROS accumulation in tumor at 10 mg/kg, iv administered upto 5 days", "format": "functional, organism-based", "conditions": "time <= 5.0 day"}, "[15]": {"experiment": "Toxicity in female BALB/c mouse implanted with mouse 4T1 cells assessed as spleen damage at 10 mg/kg, iv", "format": "organism-based", "conditions": "in vivo"}, "[16]": {"experiment": "Toxicity in female BALB/c mouse implanted with mouse 4T1 cells assessed as spleen inflammation at 10 mg/kg, iv", "format": "organism-based", "conditions": "in vivo"}, "[17]": {"experiment": "Toxicity in female BALB/c mouse implanted with mouse 4T1 cells assessed as kidney lesion at 10 mg/kg, iv", "format": "organism-based", "conditions": "in vivo"}, "4T1 [18]": {"tested_on": "4T1", "experiment": "Antitumor immunity against mouse 4T1 cells implanted in female BALB/c mouse model assessed as increase in proportion of tumor infiltrating CD8+ T cell at 10 mg/kg, iv administered upto 5 days by flow cytometry analysis", "format": "functional, organism-based", "conditions": "time <= 5.0 day"}, "MDA-MB-468 [19]": {"tested_on": "MDA-MB-468", "experiment": "Induction of apoptosis in human MDA-MB-468 cells assessed as increase in cleaved PARP level at 25 nM measured after 48 hrs by Western blot analysis", "format": "functional, cell-based"}, "[20]": {"experiment": "Toxicity in female BALB/c mouse implanted with mouse 4T1 cells assessed as lung inflammation at 10 mg/kg, iv", "format": "organism-based", "conditions": "in vivo"}, "[21]": {"experiment": "Toxicity in female BALB/c mouse implanted with mouse 4T1 cells assessed as liver inflammation at 10 mg/kg, iv", "format": "organism-based", "conditions": "in vivo"}, "4T1 [22]": {"tested_on": "4T1", "experiment": "Antitumor activity against mouse 4T1 cells implanted in female BALB/c mouse model assessed as reduction in proportion of CD11b+ IL-6+ cells in tumor at 10 mg/kg, iv administered upto 5 days", "format": "functional, organism-based", "conditions": "time <= 5.0 day"}, "[23]": {"experiment": "Toxicity in female BALB/c mouse implanted with mouse 4T1 cells assessed as liver abnormality at 10 mg/kg, iv", "format": "organism-based", "conditions": "in vivo"}, "Cisplatin-resistant 4T1 [24]": {"tested_on": "Cisplatin-resistant 4T1", "experiment": "Antitumor activity against mouse Cisplatin-resistant 4T1 cells implanted in female BALB/c mouse assessed as reduction in tumor weight at 10 mg/kg, ip", "format": "functional, organism-based"}, "Cisplatin-resistant 4T1 [25]": {"tested_on": "Cisplatin-resistant 4T1", "experiment": "Antitumor activity against mouse Cisplatin-resistant 4T1 cells implanted in female BALB/c mouse assessed as reduction in tumor volume at 10 mg/kg, ip", "format": "functional, organism-based"}, "4T1 [26]": {"tested_on": "4T1", "experiment": "Antitumor activity against mouse 4T1 cells implanted in female BALB/c mouse at 10 mg/kg, iv administered upto 5 days", "format": "functional, organism-based", "conditions": "time <= 5.0 day"}, "[27]": {"experiment": "Toxicity in female BALB/c mouse implanted with mouse 4T1 cells assessed as heart lesion at 10 mg/kg, iv", "format": "organism-based", "conditions": "in vivo"}, "[28]": {"molecular_target": "T1, Cystine/glutamate transporter (Homo sapiens) (UniProt Q9UPY5)", "T1 sequence (whole entry)": "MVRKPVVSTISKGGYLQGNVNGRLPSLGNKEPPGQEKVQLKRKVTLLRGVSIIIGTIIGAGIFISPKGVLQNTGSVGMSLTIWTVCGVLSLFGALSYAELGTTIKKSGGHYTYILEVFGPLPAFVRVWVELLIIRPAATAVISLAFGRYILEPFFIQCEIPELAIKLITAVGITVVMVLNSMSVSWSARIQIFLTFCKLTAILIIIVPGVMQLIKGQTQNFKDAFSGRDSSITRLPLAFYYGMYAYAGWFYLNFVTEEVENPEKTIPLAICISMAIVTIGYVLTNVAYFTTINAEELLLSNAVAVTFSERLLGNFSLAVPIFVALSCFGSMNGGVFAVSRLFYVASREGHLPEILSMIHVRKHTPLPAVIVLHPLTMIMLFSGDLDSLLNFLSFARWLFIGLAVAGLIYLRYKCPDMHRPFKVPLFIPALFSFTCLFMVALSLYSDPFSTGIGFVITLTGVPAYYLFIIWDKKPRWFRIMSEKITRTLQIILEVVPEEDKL", "experiment": "Inhibition of Xc- in human MDA-MB-468 cells assessed as decrease in glutamate release at 25 nM incubated for 12 hrs", "format": "cell-based"}, "MDA-MB-468 [29]": {"tested_on": "MDA-MB-468", "experiment": "Induction of ferroptosis in human MDA-MB-468 cells assessed as increase in lipid peroxidation at 25 nM by C11-BODIPY staining based flow cytometry analysis", "format": "functional, cell-based", "conditions": "time <= 24.0 hrs"}, "MDA-MB-468 [30]": {"tested_on": "MDA-MB-468", "experiment": "Induction of ferroptosis in human MDA-MB-468 cells expressing GPX4 assessed as reduction in lipid peroxidation level at 25 nM incubated for 6 hrs by C11-BODIPY staining based flow cytometry analysis", "format": "functional, cell-based"}, "MDA-MB-468 [31]": {"tested_on": "MDA-MB-468", "experiment": "Induction of endoplasmic reticulum (ER) stress-mediated apoptosis in human MDA-MB-468 cells assessed as increase in ATF4 expression at 25 nM measured at 4 to 48 hrs by Western blot analysis", "format": "functional, cell-based", "conditions": "time 4-48 hrs"}, "MDA-MB-468 [32]": {"tested_on": "MDA-MB-468", "experiment": "Induction of endoplasmic reticulum (ER) stress-mediated apoptosis in human MDA-MB-468 cells assessed as increase in CHOP expression at 25 nM measured at 4 to 48 hrs by Western blot analysis", "format": "functional, cell-based", "conditions": "time 4-48 hrs"}}, "note": "The source made the active and inactive calls. The rule behind the calls is not given here.", "data": [{"molecule": "CCCCCCC[C@@H]1CC(=O)N[C@H](Cc2ccccc2)C(=O)N[C@H]2CSSC[C@H](NC2=O)C(=O)O1", "values": [{"measurement": "Activity", "setting": "HEK293 [1]", "value": "Non-toxic"}, {"measurement": "Activity", "setting": "[2]", "value": "Non-toxic"}, {"measurement": "Activity", "setting": "4T1 [3]", "value": "Active"}, {"measurement": "Activity", "setting": "MDA-MB-468 [4]", "value": "Active"}, {"measurement": "Activity", "setting": "MDA-MB-468 [5]", "value": "Active"}, {"measurement": "Activity", "setting": "MDA-MB-468 [6]", "value": "Active"}, {"measurement": "Activity", "setting": "[7]", "value": "Non-toxic"}, {"measurement": "Activity", "setting": "4T1 [8]", "value": "Active"}, {"measurement": "Activity", "setting": "MDA-MB-468 [9]", "value": "Active"}, {"measurement": "Activity", "setting": "[10]", "value": "Non-toxic"}, {"measurement": "TGI", "setting": "4T1 [11]", "value": "Active"}, {"measurement": "Activity", "setting": "HEK293 [12]", "value": "Non-toxic"}, {"measurement": "Activity", "setting": "4T1 [13]", "value": "Active"}, {"measurement": "Activity", "setting": "4T1 [14]", "value": "Active"}, {"measurement": "Activity", "setting": "[15]", "value": "Non-toxic"}, {"measurement": "Activity", "setting": "[16]", "value": "Non-toxic"}, {"measurement": "Activity", "setting": "[17]", "value": "Non-toxic"}, {"measurement": "Activity", "setting": "4T1 [18]", "value": "Active"}, {"measurement": "Activity", "setting": "MDA-MB-468 [19]", "value": "Active"}, {"measurement": "Activity", "setting": "[20]", "value": "Non-toxic"}, {"measurement": "Activity", "setting": "[21]", "value": "Non-toxic"}, {"measurement": "Activity", "setting": "4T1 [22]", "value": "Active"}, {"measurement": "Activity", "setting": "[23]", "value": "Non-toxic"}, {"measurement": "Activity", "setting": "Cisplatin-resistant 4T1 [24]", "value": "Active"}, {"measurement": "Activity", "setting": "Cisplatin-resistant 4T1 [25]", "value": "Active"}, {"measurement": "Activity", "setting": "4T1 [26]", "value": "Active"}, {"measurement": "Activity", "setting": "[27]", "value": "Non-toxic"}, {"measurement": "inhibition", "setting": "[28]", "value": "inactive"}]}, {"molecule": "CCCCCCC[C@@H](O)CC(=O)N[C@H](Cc1ccccc1)C(=O)N[C@H]1CSSC[C@@H](C(=O)O)NC1=O", "values": [{"measurement": "Activity", "setting": "MDA-MB-468 [5]", "value": "inactive"}, {"measurement": "Activity", "setting": "MDA-MB-468 [29]", "value": "Time-dependent-effect"}, {"measurement": "Activity", "setting": "HEK293 [12]", "value": "Non-toxic"}, {"measurement": "Activity", "setting": "MDA-MB-468 [30]", "value": "Active"}, {"measurement": "Activity", "setting": "MDA-MB-468 [31]", "value": "Active"}, {"measurement": "Activity", "setting": "MDA-MB-468 [32]", "value": "Active"}, {"measurement": "inhibition", "setting": "[28]", "value": "inactive"}]}, {"molecule": "CCCCCCC[C@@H]1CC(=O)N[C@H](Cc2ccccc2)C(=O)N[C@@H](CSC)C(=O)N[C@@H](CSC)C(=O)O1", "values": [{"measurement": "Activity", "setting": "MDA-MB-468 [5]", "value": "inactive"}, {"measurement": "Activity", "setting": "MDA-MB-468 [29]", "value": "Time-dependent-effect"}, {"measurement": "Activity", "setting": "HEK293 [12]", "value": "Non-toxic"}, {"measurement": "Activity", "setting": "MDA-MB-468 [30]", "value": "Active"}, {"measurement": "Activity", "setting": "MDA-MB-468 [31]", "value": "Active"}, {"measurement": "Activity", "setting": "MDA-MB-468 [32]", "value": "Active"}, {"measurement": "inhibition", "setting": "[28]", "value": "inactive"}]}]}
